This is an account of results in ChEMBL document CHEMBL1157844, “QSAR study of flavonoids and biflavonoids as influenza H1N1 virus neuraminidase inhibitors” (Eur J Med Chem, 2010).

Experiment [1] concerns the target Neuraminidase (Influenza A virus (A/Puerto Rico/8/1934(H1N1)), UniProt P03468). Put plainly: (§1) Inhibition of Influenza A PR/8/34 H1N1 virus neuraminidase activity by MUN-ANA substrate based fluorimetric assay.
Experiment [2] has as its target Neuraminidase (Influenza A virus (A/Puerto Rico/8/1934(H1N1))) (UniProt P03468). The description is as §1. On the set-up: unit not given here.

Neuraminidase (Influenza A virus (A/Puerto Rico/8/1934(H1N1))), sequence (P03468 whole entry): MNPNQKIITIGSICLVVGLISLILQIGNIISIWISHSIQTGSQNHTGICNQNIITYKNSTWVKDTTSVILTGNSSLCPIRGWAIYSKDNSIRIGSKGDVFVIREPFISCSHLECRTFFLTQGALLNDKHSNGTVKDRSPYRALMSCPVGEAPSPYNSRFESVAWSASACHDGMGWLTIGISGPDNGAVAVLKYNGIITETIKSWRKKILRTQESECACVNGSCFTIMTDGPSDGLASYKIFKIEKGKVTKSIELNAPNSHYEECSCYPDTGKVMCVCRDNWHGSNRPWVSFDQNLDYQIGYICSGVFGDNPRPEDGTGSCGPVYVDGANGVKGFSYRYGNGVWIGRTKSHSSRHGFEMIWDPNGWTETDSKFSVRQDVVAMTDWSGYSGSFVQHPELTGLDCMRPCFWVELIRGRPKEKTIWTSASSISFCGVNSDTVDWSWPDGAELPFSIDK
Neuraminidase (Influenza A virus (A/Puerto Rico/8/1934(H1N1)), UniProt P03468), sequence (P03468 whole entry): as above

By IC50 is commonly meant the midpoint of a concentration-inhibition curve. Turning to `COc1ccc(-c2cc(=O)c3c(O)c(Oc4ccc(-c5cc(=O)c6c(O)cc(OC)cc6o5)cc4)c(O[C@]4(C(=O)O)C[C@H](O)[C@@H](NC(C)=O)[C@H]([C@@H](O)[C@@H](O)CO)O4)cc3o2)cc1`, in experiment [1], the midpoint of inhibition, the IC50, lay at 22.3 µM. For the same compound, the logIC50 in experiment [2] was 1.28.
The compound `O=C1/C(=C\c2ccccc2)Oc2cc(O)ccc21` had an IC50 in experiment [1] of 72 µM. For the same compound, the logIC50 in experiment [2] came out at 1.23.
`O=C(Oc1cc(O)c2c(c1)OC(c1cc(O)c(O)c(O)c1)CC2)c1cc(O)c(O)c(O)c1` (stereo unspecified) had an IC50 in experiment [1] of 35.5 µM. The logIC50 in experiment [2] was found to be 1.2.
The matching figures for `O=C1/C(=C\c2ccc(O)cc2)Oc2cc(O)ccc21`: 22 µM and 0.748.
On the same counts, the results for `O=c1c(O[C@H]2O[C@@H](CO)[C@H](O)[C@@H](O)[C@@H]2O[C@@H]2OC[C@@H](O)[C@H](O)[C@H]2O)c(-c2ccc(O)cc2)oc2cc(O)cc(O)c12` (stereo in doubt) are 42.2 µM and 1.39.
`COc1c(O)cc(O)c2c(=O)cc(-c3ccc(O)cc3)oc12` [4'-HYDROXYWOGONIN] gave an IC50 in experiment [1] of 43.8 µM. In addition, in experiment [2], the logIC50 was 1.12.
Turning to `O=c1cc(-c2ccc(O)cc2)oc2cc(O)cc(O)c12` [APIGENIN], the IC50 in experiment [1] is 31.6 µM. Besides, in experiment [2], the logIC50 worked out at 0.932.
`O=c1cc(-c2ccccc2)oc2cc(O)cc(O)c12` [CHRYSIN] gave an IC50 in experiment [1] of 45.7 µM. Further, the logIC50 in experiment [2] is 1.06.
Regarding `O=c1c(-c2ccc(O)cc2)coc2cc(O)ccc12` [DAIDZEIN], the IC50 in experiment [1] is 37.1 µM. The compound further displayed a logIC50 in experiment [2] of 0.975.
Turning to `O=c1cc(-c2ccc(O)c(O)c2)oc2cc(O[C@@H]3O[C@H](CO)[C@@H](O)[C@H](O)[C@H]3O)cc(O)c12` [GALUTEOLIN], the midpoint of inhibition in experiment [1], the IC50, lay at 47.4 µM. The same compound came in with a logIC50 in experiment [2] of 1.33.
As to `O=c1c(-c2ccc(O)cc2)coc2cc(O)cc(O)c12` [GENISTEIN], the IC50 in experiment [1] is 77.1 µM. In experiment [2], this compound registered a logIC50 of 1.32.
On the same counts, the results for `COc1cc(O)c2c(=O)cc(-c3ccc(OC)c(-c4c(O)cc(O)c5c(=O)cc(-c6ccc(O)cc6)oc45)c3)oc2c1` [GINKGETIN] are 97.1 µM and 1.74.
For `O=c1cc(-c2ccc(Oc3c(O)cc4oc(-c5ccc(O)cc5)cc(=O)c4c3O)cc2)oc2cc(O)cc(O)c12` [HINOKIFLAVONE], the IC50 in experiment [1] was 77.6 µM. Besides, the logIC50 in experiment [2] was 1.62.
On the same counts, the results for `COc1c(O)cc2oc(-c3ccc(O)cc3)cc(=O)c2c1O` [HISPIDULIN] are 46.3 µM and 1.14.
The matching figures for `O=c1c(O)c(-c2ccc(O)cc2)oc2cc(O)cc(O)c12` [KAEMPFEROL]: 58.6 µM and 1.23.
The matching figures for `O=c1cc(-c2ccc(O)c(O)c2)oc2cc(O)cc(O)c12` [LUTEOLIN]: 33.7 µM and 0.984.
For the compound `O=c1c(O)c(-c2cc(O)c(O)c(O)c2)oc2cc(O)cc(O)c12` [MYRICETIN], the IC50 in experiment [1] was 82.6 µM. This compound registered a logIC50 in experiment [2] of 1.42.
Compound `O=c1c(O)c(-c2ccc(O)c(O)c2)oc2cc(O)cc(O)c12` [QUERCETIN] had an IC50 in experiment [1] of 58.4 µM. The compound further displayed a logIC50 in experiment [2] of 1.25.
The matching figures for `COc1cc(O)c2c(=O)c(O)c(-c3ccc(O)cc3)oc2c1` [RHAMNOCITRIN]: 51.5 µM and 1.19.
On the same counts, the results for `C[C@@H]1O[C@@H](OC[C@H]2O[C@@H](Oc3c(-c4ccc(O)c(O)c4)oc4cc(O)cc(O)c4c3=O)[C@H](O)[C@@H](O)[C@@H]2O)[C@H](O)[C@H](O)[C@H]1O` [RUTIN] are 51 µM and 1.49.
The matching figures for `O=c1cc(-c2ccc(O)cc2)oc2cc(O)c(O)c(O)c12` [SCUTELLAREIN]: 50.6 µM and 1.16.
For the compound `O=C1/C(=C/c2ccc(O)c(O)c2)Oc2cc(O)ccc21` [SULFURETIN], the midpoint of inhibition in experiment [1], the IC50, lay at 29.6 µM. Besides, in experiment [2], the logIC50 amounted to 0.903.
For `O=c1cc(-c2ccc(O)cc2)oc2c([C@@H]3O[C@H](CO)[C@@H](O)[C@H](O)[C@H]3O)c(O)cc(O)c12` [VITEXIN], the IC50 in experiment [1] was 48.2 µM. In experiment [2], the logIC50 amounted to 1.32.
